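Cells were grown in 96-well plates and exposed to each compound for 48 hours at five concentrations; endpoints were interpolated linearly between bracketing concentrations, or set to the highest concentration if not reached. Here, GI50 denotes the concentration required for 50% inhibition of growth. At the TGI there is no net growth.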
Key:
Assay in all cases: inhibition of tumour cell growth, NCI panel, 48 h
786-0 renal = system: 786-0 renal
A498 renal = system: A498 renal
A549 NSCLC = system: A549 NSCLC
ACHN renal = system: ACHN renal
BT-549 breast = system: BT-549 breast
CAKI-1 renal = system: CAKI-1 renal
CCRF-CEM leukemia = system: CCRF-CEM leukemia
COLO 205 colon = system: COLO 205 colon
DU-145 prostate = system: DU-145 prostate
EKVX NSCLC = system: EKVX NSCLC
HCC-2998 colon = system: HCC-2998 colon
HCT-116 colon = system: HCT-116 colon
HCT-15 colon = system: HCT-15 colon
HL-60(TB) leukemia = system: HL-60(TB) leukemia
HOP-62 NSCLC = system: HOP-62 NSCLC
HOP-92 NSCLC = system: HOP-92 NSCLC
HS 578T breast = system: HS 578T breast
HT29 colon = system: HT29 colon
IGROV1 ovarian = system: IGROV1 ovarian
K-562 leukemia = system: K-562 leukemia
KM12 colon = system: KM12 colon
LOX IMVI melanoma = system: LOX IMVI melanoma
M14 melanoma = system: M14 melanoma
MALME-3M melanoma = system: MALME-3M melanoma
MCF7 breast = system: MCF7 breast
MDA-MB-231 breast = system: MDA-MB-231 breast
MDA-MB-435 = system: MDA-MB-435
MOLT-4 leukemia = system: MOLT-4 leukemia
NCI-H226 lung = system: NCI-H226 lung
NCI-H23 lung = system: NCI-H23 lung
NCI-H460 lung = system: NCI-H460 lung
NCI-H522 lung = system: NCI-H522 lung
NCI/ADR-RES ovarian = system: NCI/ADR-RES ovarian
OVCAR-3 ovarian = system: OVCAR-3 ovarian
OVCAR-4 ovarian = system: OVCAR-4 ovarian
OVCAR-5 ovarian = system: OVCAR-5 ovarian
OVCAR-8 ovarian = system: OVCAR-8 ovarian
PC-3 prostate = system: PC-3 prostate
RPMI-8226 leukemia = system: RPMI-8226 leukemia
RXF 393 renal = system: RXF 393 renal
SF-268 CNS = system: SF-268 CNS
SF-295 CNS = system: SF-295 CNS
SF-539 CNS = system: SF-539 CNS
SK-MEL-2 melanoma = system: SK-MEL-2 melanoma
SK-MEL-28 melanoma = system: SK-MEL-28 melanoma
SK-MEL-5 melanoma = system: SK-MEL-5 melanoma
SK-OV-3 ovarian = system: SK-OV-3 ovarian
SN12C renal = system: SN12C renal
SNB-19 CNS = system: SNB-19 CNS
SNB-75 CNS = system: SNB-75 CNS
SR leukemia = system: SR leukemia
SW-620 colon = system: SW-620 colon
T-47D breast = system: T-47D breast
TK-10 renal = system: TK-10 renal
U251 CNS = system: U251 CNS
UACC-257 melanoma = system: UACC-257 melanoma
UACC-62 melanoma = system: UACC-62 melanoma
UO-31 renal = system: UO-31 renal

In the case of `COc1cc(/C=C/C(=O)C(C(=O)/C=C/c2ccc(OC(=O)CCNc3nnc(C)s3)c(OC)c2)C(=O)CCNc2nnc(C)s2)ccc1OC(=O)CCNc1nnc(C)s1`, the GI50 (786-0 renal) is reported as 2580 nM, the TGI (786-0 renal) is reported as 9.51 µM and the GI50 (A498 renal) is reported as 2510 nM. For the same molecule, the TGI (A498 renal) was 6.67 µM, the GI50 (A549 NSCLC) was 2700 nM and the TGI (A549 NSCLC) was 7.87 µM. It also gave a GI50 (ACHN renal) of 2280 nM, a TGI (ACHN renal) of 5.22 µM and a GI50 (BT-549 breast) of 2360 nM. The TGI (BT-549 breast) was 5.77 µM, the GI50 (CAKI-1 renal) was 2860 nM and the TGI (CAKI-1 renal) was > 34.2 µM. It also gave a GI50 (CCRF-CEM leukemia) of 1090 nM, a TGI (CCRF-CEM leukemia) of 2510 nM and a GI50 (COLO 205 colon) of 2570 nM. The TGI (COLO 205 colon) was 6.94 µM, the GI50 (DU-145 prostate) was 2270 nM and the TGI (DU-145 prostate) was 5.61 µM. It also gave a GI50 (EKVX NSCLC) of 3.8 µM, a TGI (EKVX NSCLC) of 14.8 µM and a GI50 (HCC-2998 colon) of 1770 nM. The TGI (HCC-2998 colon) was 3.2 µM, the GI50 (HCT-116 colon) was 1650 nM and the TGI (HCT-116 colon) was 3.81 µM. For the same molecule, the GI50 (HCT-15 colon) was 2470 nM, the TGI (HCT-15 colon) was 5.86 µM and the GI50 (HL-60(TB) leukemia) was 1770 nM. The TGI (HL-60(TB) leukemia) was 3.93 µM, the GI50 (HOP-62 NSCLC) was 5.02 µM and the TGI (HOP-62 NSCLC) was > 31.8 µM. For the same molecule, the GI50 (HOP-92 NSCLC) was 2480 nM, the TGI (HOP-92 NSCLC) was 8.4 µM and the GI50 (HS 578T breast) was 2770 nM. It also gave a TGI (HS 578T breast) of 9.7 µM, a GI50 (HT29 colon) of 1630 nM and a TGI (HT29 colon) of 3.56 µM. The GI50 (IGROV1 ovarian) was 1980 nM, the TGI (IGROV1 ovarian) was 4.47 µM and the GI50 (K-562 leukemia) was 2230 nM. For the same molecule, the TGI (K-562 leukemia) was 8.01 µM, the GI50 (KM12 colon) was 1630 nM and the TGI (KM12 colon) was 3.18 µM. For the same molecule, the GI50 (LOX IMVI melanoma) was 1890 nM, the TGI (LOX IMVI melanoma) was 3.84 µM and the GI50 (M14 melanoma) was 3.11 µM. The TGI (M14 melanoma) was 11 µM, the GI50 (MALME-3M melanoma) was 2720 nM and the TGI (MALME-3M melanoma) was 6.51 µM. The GI50 (MCF7 breast) was 2160 nM, the TGI (MCF7 breast) was 12.6 µM and the GI50 (MDA-MB-231 breast) was 2230 nM. For the same molecule, the TGI (MDA-MB-231 breast) was 7.4 µM, the GI50 (MDA-MB-435) was 2060 nM and the TGI (MDA-MB-435) was 6.98 µM. It also gave a GI50 (MOLT-4 leukemia) of 1640 nM, a TGI (MOLT-4 leukemia) of 3.89 µM and a GI50 (NCI-H226 lung) of 2640 nM. It also gave a TGI (NCI-H226 lung) of 8.12 µM, a GI50 (NCI-H23 lung) of 3.19 µM and a TGI (NCI-H23 lung) of 18.4 µM. It also gave a GI50 (NCI-H460 lung) of 2200 nM, a TGI (NCI-H460 lung) of 4.7 µM and a GI50 (NCI-H522 lung) of 2490 nM. For the same molecule, the TGI (NCI-H522 lung) was 7.79 µM, the GI50 (NCI/ADR-RES ovarian) was 3.87 µM and the TGI (NCI/ADR-RES ovarian) was > 38.8 µM. It also gave a GI50 (OVCAR-3 ovarian) of 2400 nM, a TGI (OVCAR-3 ovarian) of 6.95 µM and a GI50 (OVCAR-4 ovarian) of 4.76 µM. For the same molecule, the TGI (OVCAR-4 ovarian) was > 61.5 µM, the GI50 (OVCAR-5 ovarian) was 2890 nM and the TGI (OVCAR-5 ovarian) was 7.12 µM. It also gave a GI50 (OVCAR-8 ovarian) of 2930 nM, a TGI (OVCAR-8 ovarian) of 16.7 µM and a GI50 (PC-3 prostate) of 2850 nM. It also gave a TGI (PC-3 prostate) of 15.4 µM, a GI50 (RPMI-8226 leukemia) of 1850 nM and a TGI (RPMI-8226 leukemia) of 4.86 µM. The GI50 (RXF 393 renal) was 1300 nM, the TGI (RXF 393 renal) was 3.22 µM and the GI50 (SF-268 CNS) was 2640 nM. The TGI (SF-268 CNS) was 11.2 µM, the GI50 (SF-295 CNS) was 6.8 µM and the TGI (SF-295 CNS) was 20.2 µM. It also gave a GI50 (SF-539 CNS) of 2430 nM, a TGI (SF-539 CNS) of 6.03 µM and a GI50 (SK-MEL-2 melanoma) of 2850 nM. It also gave a TGI (SK-MEL-2 melanoma) of 12.5 µM, a GI50 (SK-MEL-28 melanoma) of 1750 nM and a TGI (SK-MEL-28 melanoma) of 4.02 µM. For the same molecule, the GI50 (SK-MEL-5 melanoma) was 1870 nM, the TGI (SK-MEL-5 melanoma) was 4.52 µM and the GI50 (SK-OV-3 ovarian) was 4.65 µM. It also gave a TGI (SK-OV-3 ovarian) of 23.6 µM, a GI50 (SN12C renal) of 2490 nM and a TGI (SN12C renal) of 10.2 µM. The GI50 (SNB-19 CNS) was 4.79 µM, the TGI (SNB-19 CNS) was 18.3 µM and the GI50 (SNB-75 CNS) was 6.19 µM. The TGI (SNB-75 CNS) was 34.5 µM, the GI50 (SR leukemia) was 1180 nM and the TGI (SR leukemia) was 3.31 µM. The GI50 (SW-620 colon) was 1640 nM, the TGI (SW-620 colon) was 3.33 µM and the GI50 (T-47D breast) was 4.14 µM. For the same molecule, the TGI (T-47D breast) was > 47.5 µM, the GI50 (TK-10 renal) was 4.03 µM and the TGI (TK-10 renal) was 13.7 µM. For the same molecule, the GI50 (U251 CNS) was 2480 nM, the TGI (U251 CNS) was 7.35 µM and the GI50 (UACC-257 melanoma) was 2640 nM. The TGI (UACC-257 melanoma) was 8.31 µM, the GI50 (UACC-62 melanoma) was 1730 nM and the TGI (UACC-62 melanoma) was 3.57 µM. It also gave a GI50 (UO-31 renal) of 1620 nM and a TGI (UO-31 renal) of 3.67 µM.

Reference: PubChem BioAssay (NCI)
